Several values for one entry are separate records, joined by “and”; a condition that tells them apart may be missing. Identical values can stand only once. Numbers after ± are expanded uncertainties.
Conditions: for speed of sound / mass density / viscosity: 102 kPa, Liquid; for speed of sound: Frequency=3 MHz, Single path-length method; for mass density: Vibrating tube method; for viscosity: Concentric cylinders viscometry; for surface tension liquid-gas: Pendant drop shape

CCCCCCCCCCCC [dodecane]
Conditions	mass density [kg/m3]	speed of sound [m/s]	surface tension liquid-gas [mN/m]	viscosity [mPa·s]
288.15 K	752.41 ± 0.53	1317.4 ± 1	–	–
293.15 K	748.79 ± 0.53	1297.9 ± 1	–	1.51 ± 0.02
295 K	–	–	24.9 ± 0.3	–
298.15 K	745.16 ± 0.53	1278.7 ± 1	–	–
303.15 K	741.53 ± 0.53	1259.5 ± 1	–	1.25 ± 0.02
313.15 K	734.25 ± 0.53	1221.7 ± 1	–	1.06 ± 0.02
323.15 K	726.94 ± 0.53	1184.5 ± 1	–	0.916 ± 0.021
333.15 K	719.59 ± 0.53	1148.2 ± 1	–	0.798 ± 0.021

CCCCc1ccccc1 [butylbenzene]
Conditions	mass density [kg/m3]	speed of sound [m/s]	surface tension liquid-gas [mN/m]	viscosity [mPa·s]
253.15 K	892.8 ± 2	–	–	2.36 ± 0.06
288.15 K	864.7 ± 0.31	1373.7 ± 0.8	–	–
293.15 K	860.69 ± 0.31	1353.8 ± 0.8	–	1.04 ± 0.02
295 K	–	–	28.8 ± 0.3	–
298.15 K	856.68 ± 0.31	1334.1 ± 0.8	–	–
303.15 K	852.65 ± 0.31	1314.5 ± 0.8	–	0.891 ± 0.021
313.15 K	844.6 ± 0.31	1276.1 ± 0.8	–	0.773 ± 0.021
323.15 K	836.51 ± 0.31	1238.4 ± 0.8	–	0.679 ± 0.021
333.15 K	828.38 ± 0.31	1201.7 ± 0.8	–	0.601 ± 0.021

CCCCC1CCCCC1 [butylcyclohexane]
Conditions	mass density [kg/m3]	speed of sound [m/s]	surface tension liquid-gas [mN/m]	viscosity [mPa·s]
253.15 K	829.9 ± 2	–	–	3.08 ± 0.06
288.15 K	803.07 ± 0.73	1348.8 ± 1.2	–	–
293.15 K	799.33 ± 0.73	1328.3 ± 1.2	–	1.32 ± 0.02
294.5 K	–	–	26.6 ± 0.4	–
298.15 K	795.57 ± 0.73	1308.1 ± 1.2	–	–
303.15 K	791.81 ± 0.73	1288 ± 1.2	–	1.11 ± 0.02
313.15 K	784.27 ± 0.73	1248.6 ± 1.2	–	0.95 ± 0.021
323.15 K	776.71 ± 0.73	1210.1 ± 1.2	–	0.826 ± 0.021
333.15 K	769.1 ± 0.73	1172.6 ± 1.2	–	0.729 ± 0.021

CC(CC(C)(C)C)CC(C)(C)CC(C)(C)C (stereo unspecified) [2,2,4,4,6,8,8-heptamethylnonane]
Conditions	mass density	speed of sound [m/s]	surface tension liquid-gas [mN/m]	viscosity [mPa·s]
253.15 K	811.5 ± 2 kg/m3 and 811.4 ± 2 kg/m3	–	–	14.1 ± 0.1
288.15 K	787.84 ± 0.52 kg/m3 and 787.76 ± 0.52 kg/m3	1305.1 ± 1	–	–
293.15 K	784.51 ± 0.52 kg/m3 and 784.4 ± 0.52 kg/m3	1286 ± 1	–	3.73 ± 0.03
295 K	–	–	24.2 ± 0.3	–
298.15 K	781.15 ± 0.52 kg/m3 and 781.05 ± 0.52 kg/m3	1267.1 ± 1	–	–
303.15 K	777.8 ± 0.52 kg/m3 and 777.7 ± 0.52 kg/m3	1248.1 ± 1	–	2.96 ± 0.03
313.15 K	771.09 ± 0.52 kg/m3 and 770.99 ± 0.52 kg/m3	1211.8 ± 1	–	2.4 ± 0.02
323.15 K	764.36 ± 0.52 kg/m3 and 764.27 ± 0.52 kg/m3	1176.1 ± 1	–	1.98 ± 0.02
333.15 K	757.62 ± 0.52 kg/m3 and 757.53 ± 0.52 kg/m3	1141.3 ± 1	–	1.66 ± 0.02
